The source of these data is publication PMC8584173, “The Cytotoxic Effect of Copper (II) Complexes with Halogenated 1,3-Disubstituted Arylthioureas on Cancer and Bacterial Cells” (International Journal of Molecular Sciences, 2021).

In general, IC50 refers to the concentration needed to halve the response being measured. The low end stands for inhibition by little substance, the high end for a need for much substance. As a reminder, the MIC is the least concentration at which growth counts as inhibited. A higher MIC goes with a need for much substance.

Some results are limits rather than exact numbers.

In experiment [1] the test system is SW620 (human metastatic colon cancer). Briefly: MTT cytotoxicity assay, SW620. It counts as cell-based. The note with it: SW620, 72 h. The protocol: (§1) The human primary (SW480), metastatic (SW620) colon cancer, metastatic prostate cancer (PC3) and human immortal keratinocyte (HaCaT) cell lines were purchased from the American Type Culture Collection (ATCC, Rockville, USA). The cells were cultured in medium according to protocols (MEM for SW480 and SW620, RPMI 1640 for PC3 and DMEM for HaCaT cells) supplemented with 10% fetal bovine serum (FBS), penicillin (100 U/mL) and streptomycin (100 μg/mL) and cultured in 37 °C/ 5% CO2 humidified incubator. The cells were cultured until appropriate confluence was achieved (80–90%). Next, they were harvested by treatment with 0.25% trypsin (Gibco Life Technologies, USA) and used for studies.
(§2) Cells without studied compounds in medium were used as a control.
(§3) The cell viability was assessed by determination of MTT salt (3-(4,5-dimethylthiazol-2-yl)-2,5-diphenyltetrazolium bromide) conversion by mitochondrial dehydrogenase. MTT assay was performed as previously described. Experiments were repeated three times. Cell viability was presented as a percentage of MTT reduction in the treated cells versus the control cells. Number of viable cells cultured without studied compounds was assumed to be 100%. Decreased relative MTT level means decreased cell viability.

The test system of experiment [2] is PC3 (human metastatic prostate cancer). Briefly: MTT cytotoxicity assay, PC3. The experiment is classed as cell-based. The note with it: for IC50: PC3, 72 h, MTT; for fold more active than cisplatin: PC3 cell lines. The protocol:
as §1, §2
as §3, with “viability. Thiourea complexes with the highest cytotoxic potential assessed by MTT determination (with the lowest IC50) were chosen for subsequent assessments of cytotoxicity mechanisms.” for “viability.”
(Formazan colour is commonly taken as a measure of viable cells.)

For experiment [3], the system named is E. coli ATCC 25922. Briefly: MIC, twofold serial microdilution. It counts as cell-based, Escherichia coli. The note with it: E. coli ATCC 25922, 18 h, 35 °C. The protocol: (§4) The antimicrobial activity of the compounds was tested on Gram-positive bacteria (Staphylococcus aureus NCTC 4163, Staphylococcus aureus ATCC 25923, Staphylococcus aureus ATCC 6538, Staphylococcus aureus ATCC 29213, Staphylococcus epidermidis ATCC 12228, Staphylococcus epidermidis ATCC 35984), Gram-negative rods (Escherichia coli ATCC 10538, Escherichia coli ATCC 25922, Pseudomonas aeruginosa ATCC 15442, Pseudomonas aeruginosa ATCC 27863) and yeasts (Candida albicans ATCC 10231, Candida albicans ATCC 90028, Candida parapsilosis ATCC 22019). Hospital methicillin-resistant strains of Staphylococcus aureus and Staphylococcus epidermidis were obtained from the collection of the Department of Pharmaceutical Microbiology, Medical University of Warsaw, Poland.
(§5) Antifungal activities were assessed using Mueller–Hinton agar + 2% glucose and 0.5 µg/mL methylene blue dye medium. Sterile filter paper discs (9 mm diameter, Whatman Number 3 chromatography paper) were dripped with tested compound solutions (in dimethylsulfoxide, DMSO) to load 400 μg of a given compound per disc. Dry discs were placed on the surface of appropriate agar medium. The results (diameter of the growth inhibition zone) were read after 18 h of incubation at 35 °C. Minimal inhibitory concentration (MIC) was tested by the twofold serial microdilution method (in 96-well microtiter plates) using Mueller–Hinton broth medium (Beckton Dickinson) for bacteria or RPMI-1640 medium for Candida species, according to CLSI guidelines. The stock solution of tested agent was prepared in DMSO and diluted in sterile water. […] The final inoculum of all studied microorganisms was 10^5 CFU/ mL^−1 (colony forming units per ml). Minimal inhibitory concentrations (the lowest concentration of a tested agent that prevents visible growth of a microorganism) were read after 18 h (bacteria) or 24 h (yeasts) of incubation at 35 °C.

For experiment [4], the system named is E. coli NCTC 10538. Briefly: MIC, twofold serial microdilution. It counts as cell-based, Escherichia coli. Conditions: E. coli NCTC 10538, 18 h, 35 °C. The protocol:
as §4, §5

Experiment [5] deals with C. albicans ATCC 10231. The experiment can be described thus: MIC, twofold serial microdilution. The experiment is classed as cell-based, Candida albicans. Conditions: C. albicans ATCC 10231, 24 h, 35 °C. The protocol:
as §4, §5
(In general: Dilution methods test growth across graded concentrations, often in twofold steps.)

The subject of experiment [6] is C. albicans ATCC 90028. Briefly: MIC, twofold serial microdilution. It counts as cell-based, Candida albicans. The note with it: C. albicans ATCC 90028, 24 h, 35 °C. The protocol: as §4, §5
Experiment [7] relates to C. parapsilosis ATCC 22019. Briefly: MIC, twofold serial microdilution. It counts as cell-based, Candida parapsilosis. The note with it: C. parapsilosis ATCC 22019, 24 h, 35 °C. The procedure: as §4, §5
The subject of experiment [8] is S. epidermidis 423. Briefly: MIC, hospital MRSE strain. It counts as cell-based, Staphylococcus epidermidis. The note with it: hospital MRSE S. epidermidis 423. The protocol: as §4, §5
For experiment [9], the system named is S. epidermidis 424. The experiment can be described thus: MIC, hospital MRSE strain. It counts as cell-based, Staphylococcus epidermidis. Conditions: hospital MRSE S. epidermidis 424. The protocol:
as §4, §5

Experiment [10] relates to S. epidermidis 431. Briefly: MIC, hospital MRSE strain. It counts as cell-based, Staphylococcus epidermidis. Conditions: hospital MRSE S. epidermidis 431. The protocol:
as §4, §5

For experiment [11], the system named is S. epidermidis 435. The experiment can be described thus: MIC, hospital MRSE strain. The experiment is classed as cell-based, Staphylococcus epidermidis. The note with it: hospital MRSE S. epidermidis 435. The procedure: as §4, §5
Experiment [12] has as its system S. epidermidis 436. Briefly: MIC, hospital MRSE strain. The note with it: hospital MRSE S. epidermidis 436. It counts as cell-based, Staphylococcus epidermidis. The procedure:
as §4, §5

Experiment [13] deals with S. epidermidis 437. The experiment can be described thus: MIC, hospital MRSE strain. The experiment is classed as cell-based, Staphylococcus epidermidis. The note with it: hospital MRSE S. epidermidis 437. The procedure: as §4, §5
Experiment [14] concerns S. epidermidis 438. Briefly: MIC, hospital MRSE strain. The experiment is classed as cell-based, Staphylococcus epidermidis. The note with it: hospital MRSE S. epidermidis 438. The procedure: as §4, §5
The test system of experiment [15] is S. epidermidis 469. Briefly: MIC, hospital MRSE strain. The note with it: hospital MRSE S. epidermidis 469. The experiment is classed as cell-based, Staphylococcus epidermidis. The procedure: as §4, §5
Experiment [16] relates to S. epidermidis 471. The experiment can be described thus: MIC, hospital MRSE strain. The experiment is classed as cell-based, Staphylococcus epidermidis. Conditions: hospital MRSE S. epidermidis 471. The protocol: as §4, §5
Experiment [17] concerns S. epidermidis 511. Briefly: MIC, hospital MRSE strain. It counts as cell-based, Staphylococcus epidermidis. The note with it: hospital MRSE S. epidermidis 511. The protocol: as §4, §5
The subject of experiment [18] is S. epidermidis 513. Briefly: MIC, hospital MRSE strain. It counts as cell-based, Staphylococcus epidermidis. The note with it: hospital MRSE S. epidermidis 513. The procedure:
as §4, §5

In experiment [19] the test system is S. epidermidis 515. The experiment can be described thus: MIC, hospital MRSE strain. It counts as cell-based, Staphylococcus epidermidis. The note with it: hospital MRSE S. epidermidis 515. The protocol: as §4, §5
The test system of experiment [20] is hospital S. epidermidis (MRSE). Briefly: MIC, hospital S. epidermidis. It counts as cell-based, Staphylococcus epidermidis. The note with it: S. epidermidis 424, 471, 511, 515 and 431–433 isolates. The protocol: as §4, §5

As to `O=[N+]([O-])c1cc([N+]2=C(Nc3ccccc3Br)[S][Cu-2]23[S]C(Nc2ccccc2Br)=[N+]3c2ccc(Cl)c([N+](=O)[O-])c2)ccc1Cl` [Compound 1, Copper (II) complex with 1-(2-bromophenyl)-3-(4-chloro-3-nitrophenyl)thiourea], the IC50 was determined as 3.3 ± 0.2 µM in experiment [1] and 9.7 ± 0.1 µM in experiment [2]. Besides, in [2], the “fold more active than cisplatin” value is reported as 1.2–3.1 fold. The MIC was 256 mg/L in experiment [3]; 128 mg/L in [4]; ≥256 mg/L in [5]; ≥256 mg/L in experiment [6]; ≥256 mg/L in [7]; 8 mg/L in experiment [8]. Besides, the minimal inhibitory concentration (MIC) in [9], in experiment [10], in experiment [11], in experiment [12], in experiment [13] and in experiment [14] was 8 mg/L throughout. Besides, the MIC in experiment [15] was determined as 8 mg/L; in [16] it was 8 mg/L; in experiment [17], 8 mg/L; in experiment [18] it was 8 mg/L; in experiment [19], 4 mg/L. Also, in experiment [20], the “times more effective than the reference chemotherapeutic (ciprofloxacin)” value is given as 2–16 times.
With `O=[N+]([O-])c1cc([N+]2=C(Nc3cccc(Br)c3)[S][Cu-2]23[S]C(Nc2cccc(Br)c2)=[N+]3c2ccc(Cl)c([N+](=O)[O-])c2)ccc1Cl` [Compound 2, Copper (II) complex with 1-(3-bromophenyl)-3-(4-chloro-3-nitrophenyl)thiourea], the IC50 in [1] was determined as 22.3 ± 1.8 µM; in experiment [2], 19.2 ± 2.2 µM. Also, the MIC was 128 mg/L in experiment [3]; 128 mg/L in experiment [4]; 64 mg/L in [5]; 64 mg/L in experiment [6]; 64 mg/L in experiment [7]; 8 mg/L in experiment [8]. The minimum inhibitory concentration (MIC) in [9], in [10], in experiment [11], in experiment [12], in experiment [13] and in [14] was 8 mg/L each time. Besides, the minimal inhibitory concentration (MIC) in experiment [15], in experiment [16], in experiment [17], in experiment [18] and in experiment [19] was 8 mg/L in each case. The “times more effective than the reference chemotherapeutic (ciprofloxacin)” value in [20] was 2–16 times.
On to `O=[N+]([O-])c1cc([N+]2=C(Nc3ccc(Cl)c(Cl)c3)[S][Cu-2]23[S]C(Nc2ccc(Cl)c(Cl)c2)=[N+]3c2ccc(Cl)c([N+](=O)[O-])c2)ccc1Cl` [Compound 5, Copper (II) complex with 1-(4-chloro-3-nitrophenyl)-3-(3,4-dichlorophenyl)thiourea], for which the IC50 in experiment [1] amounted to 10.8 ± 2.6 µM; in experiment [2], 11.4 ± 2.4 µM. Further, the “fold more active than cisplatin” value in [2] was 1.2–3.1 fold. The minimal inhibitory concentration (MIC) came to 128 mg/L in [3]; 128 mg/L in [4]; 128 mg/L in [5]; 128 mg/L in experiment [6]; 64 mg/L in experiment [7]; 32 mg/L in experiment [8]. Besides, the minimum inhibitory concentration (MIC) was 32 mg/L in experiment [9]; 16 mg/L in experiment [10]; 32 mg/L in experiment [11]; 32 mg/L in experiment [12]; 32 mg/L in [13]; 32 mg/L in experiment [14]. Further, the MIC in [15] is 32 mg/L; in experiment [16], 32 mg/L; in experiment [17], 32 mg/L; in experiment [18] it was 16 mg/L; in experiment [19] it was 32 mg/L.
In the case of `O=[N+]([O-])c1cc(NC2=[N+](c3ccc(Cl)c([N+](=O)[O-])c3)[Cu-2]3([S]2)[S]C(Nc2ccc(Cl)c([N+](=O)[O-])c2)=[N+]3c2ccc(Cl)c([N+](=O)[O-])c2)ccc1Cl` [Compound 6, Copper (II) complex with 1,3-bis(4-chloro-3-nitrophenyl)thiourea], the figures for the IC50 in experiment [1] and in experiment [2] were 21.5 ± 1.4 µM and 20.3 ± 3.1 µM, respectively. For the same compound, the minimum inhibitory concentration (MIC) was found to be 128 mg/L in experiment [3]; 128 mg/L in experiment [4]; 64 mg/L in experiment [5]; 64 mg/L in [6]; 64 mg/L in [7]; 64 mg/L in experiment [8]. Further, the MIC in experiment [9] worked out at 64 mg/L; in [10], 64 mg/L; in [11], 128 mg/L; in experiment [12], 128 mg/L; in experiment [13] it was 128 mg/L; in experiment [14], 128 mg/L. The minimal inhibitory concentration (MIC) in [15], in experiment [16], in [17], in [18] and in [19] was 64 mg/L in each case.
